Test results: patent US8236790B2, “Benzothiadiazepine compounds, a process for their preparation and pharmaceutical compositions containing them” (Les Laboratories Servier, priority 2009, dated 2012)

Key:
CD1 mouse = experiment: Object recognition in the CD1 mouse; type: in vivo; details: doses of 1 and 3 mg/kg PO, 60 minutes before each of the 3 phases
Excerpt: Object Recognition in the CD1 Mouse
The object recognition test (Behay. Brain Res., 1988, 31, 47-59) is based on the spontaneous exploratory activity of the animal and has the characteristics of episodic memory in humans. This memory test is sensitive to ageing (Eur. J. Pharmacol., 1997, 325, 173-180) and to cholinergic dysfunctions (Pharm. Biochem. Behay., 1996, 53(2), 277-283) and is based on the differences in the exploration of 2 objects of fairly similar shape—one familiar, the other new. The test procedure, which has been adapted for the CD1 mouse, comprises 3 phases which take place in the same test enclosure. During the first phase, which lasts 40 minutes, the mice are habituated to the environment. During the second phase, which takes place the next day, an object is placed in the enclosure and the mouse is free to explore it. Once the duration of that exploration has reached 20 seconds, the mouse is taken out of the enclosure. In the course of the third phase (5 minutes), 24 hours later, the same object is presented (acquiring the status of a “familiar” object), as well as a new object. The duration of exploration, expressed in seconds, is timed for each of the two objects.

AMPA receptor = experiment: Membrane depolarisation brought about by AMPA in primary cultures of rat neurons (fluorescence); type: cell-based; details: read-out: EC2X (the concentration of compound which doubles the membrane potential brought about by AMPA); cultured rat embryonic neurons, AMPA 3 to 100 μM
Method: Study of the Effect of Compounds on the Membrane Depolarisation Brought about by AMPA in Primary Cultures of Rat Neurons
The test comprises the in vitro measurement, by means of fluorescence, of the membrane depolarisation brought about in cultured rat embryonic neurons by the joint action of AMPA and the compound under test, compared to the action of AMPA alone. The brain cells are placed in culture and kept in a cell culture incubator for 18 days. After incubation, the culture medium is withdrawn and replaced with fluorescent probe loading medium for measurement of the membrane potential (20 μl; membrane potential kit from Molecular Devices) and left at ambient temperature for 1 hour. The base fluorescence of the wells is read (FDSS apparatus from Hamamatsu) and the cells are then injected with AMPA (20 μl; concentration range: from 3 to 100 μM) and the action of the AMPA is measured kinetically. The test compound is then introduced into the wells (20 μl; in a concentration range crossed with that of AMPA) and the action of the compound is measured kinetically. At the end of each of the two periods of kinetic measurement, the result for each well is the average reading over the final 15 seconds of the period. The curves are plotted of the effect of AMPA at the various concentrations of compound. […]

[1] = test system: NMDA-type glutamatergic receptors from rat cortex; experiment: Current induced by NMDA in oocytes of Xenopus laevis injected with poly(A+) mRNA from rat cortex (two-electrode voltage clamp); type: cell-based; details: NMDA 3×10^−4M with 3×10^−5M glycine, −60 mV, magnesium-free OR2; read-out: IC50 (concentration of product which inhibits the current induced by NMDA by 50%)
Method: Effect of Compounds on the Current Induced by NMDA in Oocytes of Xenopus laevis Injected with Poly(A^+) mRNA from Rat Cortex
Electrophysiological recordings are carried out on oocytes of Xenopus laevis injected with poly(A^+) mRNA from rat cortex and expressing, inter alia, NMDA-type glutamatergic receptors from rat cortex, in a plexiglass recording chamber continuously perfused with OR2 solution not containing magnesium (which blocks the opening of the NMDA receptor channel) and at ambient temperature. The inward current induced by an application of NMDA is recorded at a resting potential of −60 mV, using a standard two-electrode voltage clamp technique. The NMDA (3×10^−4M) is applied with the perfusion solution in the presence of 3×10^−5M glycine for 30 seconds every 5 minutes, at a constant perfusion rate of 3 ml/min. The amplitude of the current induced by NMDA is measured at the peak of the current. The tested compounds are applied at increasing doses to the same oocyte in the perfusion solution 45 seconds before, 30 seconds during and 30 seconds after the application of 3×10^−4M NMDA in the presence of 3×10^−5M glycine every 5 minutes. The amplitude of the current induced by NMDA in the presence of compound is normalised and expressed as a percentage of that induced in the same oocyte in the absence of product, which corresponds to 100% response. […]

Structure (SMILES)	exploration of the new object compared to the familiar object (CD1 mouse)	EC2X (AMPA receptor) [µM]	IC50 [1] [µM]	melting point [°C]
O=S1(=O)NCCNc2ccc(Oc3ccccc3)cc21 [Example 1, 8-phenoxy-2,3,4,5-tetrahydro-1,2,5-benzothiadiazepine 1,1-dioxide]	significantly greater exploration of the new object	25	9	–
O=S1(=O)NCCNc2ccc(Oc3ccc(OCc4ccccc4)cc3)cc21 [Example 8, 8-[4-(benzyloxy)phenoxy]-2,3,4,5-tetrahydro-1,2,5-benzothiadiazepine 1,1-dioxide]	–	–	–	134
